Test results published in patent US20230286930A1, “N -SUBSTITUTED 4-(1,3-ARYLOXAZOLO-2-YL)PHENYL COMPOUNDS FOR THE TREATMENT AND PROPHYLAXIS OF HEPATITIS B VIRUS INFECTION” (Hoffmann-La Roche Inc., priority 2020, published 2023).

How the values were obtained:
[1] = tested on: HBsAg; assay: PHH natural infection assay, HBsAg (alphalisa); assay type: cell-based, HBV; settings: Hepatitis B virus, read-out: HBsAg IC50
Protocol: (§1) Detailed procedures regarding primary human hepatocyte (PHH) HBV natural infection assay are described as below. One tube of frozen PHH (10 million cells) is thawed in 37° C. water bath and then transferred to 20 mL of PHH thawing medium (Sigma, InVitroGRO HT Medium, Cat. S03319) with gently mixing. The cells were then centrifuged at […] for 5 min, the supernatant was discarded and the tube was refilled with 25 mL of PHH plating medium (Sigma, InVitroGRO CP Medium, Cat. S03317). The tube was shaken very gently to re-suspend all cells, and then 50 μL of cells were transferred to each well 384-well collagen I coated plate with appropriate liquid handling equipment, e.g. Integra VIAFLO384 or Agilent Bravo. The cells were then cultured for 24 hours in a cell incubator. For HBV infection, after PHH attachment on the culture plate, the plating medium was removed and replenished with PHH culture medium containing HBV virus. The PHH culture medium was prepared with Dulbecco's Modified Eagle Medium (DMEM)/F12 (1:1 in volume ratio) containing 10% fetal bovine serum (Gibco, Cat. 10099141), 5 ng/mL human epidermal growth factor (Gibco, Cat.PHG0311L), 20 ng/mL dexamethasone (Sigma, Cat.D4902-100 mg), 250 ng/mL human recombinant insulin (Gibco, Cat.41400045) and 100 U/mL penicillin. HBV virus at 200 genome equivalent (GE) per cell with 4% PEG8000 (Sigma, Cat.P1458) containing culture medium were added to the PHH culture medium for infection. The cells were then cultured for 24 hours in cell incubator. Then the cell culture supernatant was removed. The HBV-infected PHH were cultured with sandwich culture method with PHH culture medium containing 1% DMSO and 0.25 mg/mL matrix gel for 72 hours. The supernatant was then refreshed with PHH culture medium containing different concentrations of testing compounds for two times with 72-hour interval. At the end of treatment, the supernatant was collected for viral markers measurements, including HBsAg, HBeAg, HBV DNA and cytotoxicity. HBsAg and HBeAg were detected using alphalisa method using their specific antibodies. For HBV DNA detection, HBV DNA Quantitative Fluorescence Diagnostic Kit (Sansure Biotech Inc.) was used following the manufacture's protocol. Cytotoxicity was determined using Cell Counting Kit-8 (CCK8, Dojindo Molecular Technologies, Inc.).
(§2) The compounds of the present invention were tested for their capacity to inhibit HBsAg and HBeAg as described herein.

[2] = tested on: HBeAg; assay: PHH natural infection assay, HBeAg (alphalisa); assay type: cell-based, HBV; settings: Hepatitis B virus, read-out: HBeAg IC50
Protocol: as §1, §2

[3] = PHH natural infection assay, cytotoxicity (Cell Counting Kit-8); assay type: cell-based; settings: human
Protocol: as §1

Row | Structure (SMILES) | IC50 [1] [µM] | IC50 [2] [µM] | CC50 at 144 h [3] [µM]
1 | O=C(Nc1ccc(-c2nc3c(F)c(F)ccc3o2)cc1)C1CCOC1 (stereo not drawn) [Example 69, N-[4-(4,5-difluoro-1,3-benzoxazol-2-yl)phenyl]tetrahydrofuran-3-carboxamide] | 1.49 | 2.1 | > 100
2 | O=C(Nc1ccc(-c2nc3cccc(F)c3o2)cc1)C1CCS(=O)(=O)CC1 [Example 18, N-[4-(7-fluoro-1,3-benzoxazol-2-yl)phenyl]-1,1-dioxo-thiane-4-carboxamide] | 0.92 | 0.96 | > 100
3 | O=C(Nc1ccc(-c2nc3c(F)cc(F)cc3o2)cc1)C1CCOC1 (stereo not drawn) [Example 84, N-[4-(4,6-difluoro-1,3-benzoxazol-2-yl)phenyl]tetrahydrofuran-3-carboxamide] | 1.4 | 2.01 | > 100
4 | O=C(Nc1ccc(-c2nc3cccc(F)c3o2)cc1)C1CS(=O)(=O)C1 [Example 31, N-[4-(7-fluoro-1,3-benzoxazol-2-yl)phenyl]-1,1-dioxo-thietane-3-carboxamide] | 1.5 | 2.29 | > 100
5 | O=C(Nc1ccc(-c2nc3cccc(F)c3o2)cc1)OC1CCOC1 (stereo not drawn) [Example 37, tetrahydrofuran-3-yl N-[4-(7-fluoro-1,3-benzoxazol-2-yl)phenyl]carbamate] | 3.43 | 4.3 | > 100
6 | O=C(Nc1ccc(-c2nc3ccc(F)cc3o2)cc1)C1CCOC1 (stereo not drawn) [Example 1, N-[4-(6-fluoro-1,3-benzoxazol-2-yl)phenyl]tetrahydrofuran-3-carboxamide] | 0.77 | 0.7 | > 100
7 | O=C(Nc1ccc(-c2nc3cccnc3o2)cc1)C1CCOC1 (stereo not drawn) [Example 67, N-(4-oxazolo[5,4-b]pyridin-2-ylphenyl)tetrahydrofuran-3-carboxamide] | 3.08 | 3.3 | > 100
8 | O=C(Nc1ccc(-c2nc3cccc(F)c3o2)cc1)C1CCOC1 (stereo not drawn) [Example 15, N-[4-(7-fluoro-1,3-benzoxazol-2-yl)phenyl]tetrahydrofuran-3-carboxamide] | 0.99 | 1.07 | > 100
9 | O=C(Nc1ccc(-c2nc3cccc(F)c3o2)cc1)C1CC2CCC(C1)O2 (stereo not drawn) [Example 22, N-[4-(7-fluoro-1,3-benzoxazol-2-yl)phenyl]-8-oxabicyclo[3.2.1]octane-3-carboxamide] | 0.96 | 1.23 | > 100
10 | O=C(Nc1ccc(-c2nc3cc(Cl)ccc3o2)cc1)C12CC(C1)C2 [Example 76, N-[4-(5-chloro-1,3-benzoxazol-2-yl)phenyl]bicyclo[1.1.1]pentane-1-carboxamide] | 1.59 | 2.11 | > 100
11 | O=C(Nc1ccc(-c2nc3c(F)cccc3o2)cc1)c1cccnc1 [Example 46, N-[4-(4-fluoro-1,3-benzoxazol-2-yl)phenyl]pyridine-3-carboxamide] | 2.23 | 4.53 | > 100
12 | O=C(Nc1ccc(-c2nc3cccc(F)c3o2)cc1)C1COC1 [Example 29, N-[4-(7-fluoro-1,3-benzoxazol-2-yl)phenyl]oxetane-3-carboxamide] | 1.38 | 1.45 | > 100
13 | CC1(C(=O)Nc2ccc(-c3nc4cccc(F)c4o3)cc2)CCOC1 (stereo not drawn) [Example 21, N-[4-(7-fluoro-1,3-benzoxazol-2-yl)phenyl]-3-methyl-tetrahydrofuran-3-carboxamide] | 0.72 | 0.85 | > 100
14 | CC(O)C(=O)Nc1ccc(-c2nc3ccc(F)cc3o2)cc1 (stereo not drawn) [Example 2, N-[4-(6-fluoro-1,3-benzoxazol-2-yl)phenyl]-2-hydroxy-propanamide] | 1.14 | 1.29 | > 100
15 | O=C(Nc1ccc(-c2nc3cccc(F)c3o2)cc1)C1CC1 [Example 20, N-[4-(7-fluoro-1,3-benzoxazol-2-yl)phenyl]cyclopropanecarboxamide] | 0.7 | 0.69 | > 100
16 | CC(=O)OC1(C(=O)Nc2ccc(-c3nc4cccc(F)c4o3)cc2)CC1 [Example 36, [1-[[4-(7-fluoro-1,3-benzoxazol-2-yl)phenyl]carbamoyl]cyclopropyl] acetate] | 2.74 | 2.61 | > 100

Row | Structure (SMILES) | IC50 [1] [µM] | IC50 [2] [µM] | CC50 at 144 h [3] [µM]
17 | O=C(Nc1ccc(-c2nc3cccc(F)c3o2)cc1)C1CCOCC1 [Example 28, N-[4-(7-fluoro-1,3-benzoxazol-2-yl)phenyl]tetrahydropyran-4-carboxamide] | 0.96 | 1 | > 100
18 | O=C(Nc1ccc(-c2nc3c(F)cccc3o2)cc1)c1ncco1 [Example 40, N-[4-(4-fluoro-1,3-benzoxazol-2-yl)phenyl]oxazole-2-carboxamide] | 0.17 | 0.33 | > 100
19 | O=C(Nc1ccc(-c2nc3c(F)cccc3o2)cc1)C12CC(F)(C1)C2 [Example 48, 3-fluoro-N-[4-(4-fluoro-1,3-benzoxazol-2-yl)phenyl]bicyclo[1.1.1]pentane-1-carboxamide] | 0.76 | 0.97 | > 100
20 | Cc1ccc2nc(-c3ccc(NC(=O)C4CCOC4)cc3)oc2n1 (stereo not drawn) [Example 71, N-[4-(5-methyloxazolo[5,4-b]pyridin-2-yl)phenyl]tetrahydrofuran-3-carboxamide] | 9.29 | 17.5 | > 100
21 | Cc1ncc(C(=O)Nc2ccc(-c3nc4c(F)cccc4o3)cc2)o1 [Example 45, N-[4-(4-fluoro-1,3-benzoxazol-2-yl)phenyl]-2-methyl-oxazole-5-carboxamide] | 1.36 | 1.35 | > 100
22 | O=C(Nc1ccc(-c2nc3cc(Cl)ccc3o2)cc1)[C@@H]1CCOC1 (single isomer, unassigned) [Example 87-a] | 4.09 | 4.05 | > 100
23 | O=C(Nc1ccc(-c2nc3ccc(F)cc3o2)cc1)C1CCSCC1 [Example 4, N-[4-(6-fluoro-1,3-benzoxazol-2-yl)phenyl]tetrahydrothiopyran-4-carboxamide] | 1.08 | 0.64 | > 100
24 | CC(C)(C)C(=O)Nc1ccc(-c2nc3cccc(F)c3o2)cc1 [Example 19, N-[4-(7-fluoro-1,3-benzoxazol-2-yl)phenyl]-2,2-dimethyl-propanamide] | 0.68 | 0.98 | > 100
25 | CC(C)(C)C(=O)Nc1ccc(-c2nc3cc(F)ccc3o2)cc1 [Example 6, N-[4-(5-fluoro-1,3-benzoxazol-2-yl)phenyl]-2,2-dimethyl-propanamide] | 1.61 | 5.55 | > 100
26 | CC(O)C(=O)Nc1ccc(-c2nc3c(F)cccc3o2)cc1 (stereo not drawn) [Example 52, N-[4-(4-fluoro-1,3-benzoxazol-2-yl)phenyl]-2-hydroxy-propanamide] | 1.72 | 1.78 | > 100
27 | CC(O)C(=O)Nc1ccc(-c2nc3cccc(F)c3o2)cc1 (stereo not drawn) [Example 24, N-[4-(7-fluoro-1,3-benzoxazol-2-yl)phenyl]-2-hydroxy-propanamide] | 0.94 | 1.8 | > 100
28 | COC(=O)C12CC(C(=O)Nc3ccc(-c4nc5cccc(F)c5o4)cc3)(C1)C2 [Example 38, methyl 3-[[4-(7-fluoro-1,3-benzoxazol-2-yl)phenyl]carbamoyl]bicyclo[1.1.1]pentane-1-carboxylate] | 3.74 | 3.94 | > 100
29 | O=C(Nc1ccc(-c2nc3cccnc3o2)cc1)[C@H]1CCS(=O)(=O)C1 (single isomer, unassigned) [Example 86-a] | 4.42 | 7.32 | > 100
30 | O=C(Nc1ccc(-c2nc3c(F)cccc3o2)cc1)C1CCOC1 (stereo not drawn) [Example 54, N-[4-(4-fluoro-1,3-benzoxazol-2-yl)phenyl]tetrahydrofuran-3-carboxamide] | 2.68 | 2.83 | > 100
31 | O=C(Nc1ccc(-c2nc3c(F)cccc3o2)cc1)C1CCS(=O)(=O)CC1 [Example 55, N-[4-(4-fluoro-1,3-benzoxazol-2-yl)phenyl]-1,1-dioxo-thiane-4-carboxamide] | 2.96 | 2.8 | > 100
